Measured values: patent US8242118B2, “Arylsulfonamide derivatives for use as CCR3 antagonists in the treatment of inflammatory and immunological disorders” (Axikin Pharmaceuticals Inc., priority 2001, dated 2012)
Counter-ions that a name gives are not always drawn.

The compounds below were run against T1, Human CCR3 (Homo sapiens, UniProt P51677) (assay: Calcium mobilization assay, eotaxin-stimulated). Conditions: human CCR3-transformed K562 cells, 10 nM eotaxin; compounds of about 40 to 90% purity; read-out: Activity grade Ca2+ (IC50 class).
T1 construct: The cloned CCR3 cDNA was constructed with pcDNA3 vector and transfected into a IC562 cell line; expressed in transfected cells
T1 sequence (P51677 1-355): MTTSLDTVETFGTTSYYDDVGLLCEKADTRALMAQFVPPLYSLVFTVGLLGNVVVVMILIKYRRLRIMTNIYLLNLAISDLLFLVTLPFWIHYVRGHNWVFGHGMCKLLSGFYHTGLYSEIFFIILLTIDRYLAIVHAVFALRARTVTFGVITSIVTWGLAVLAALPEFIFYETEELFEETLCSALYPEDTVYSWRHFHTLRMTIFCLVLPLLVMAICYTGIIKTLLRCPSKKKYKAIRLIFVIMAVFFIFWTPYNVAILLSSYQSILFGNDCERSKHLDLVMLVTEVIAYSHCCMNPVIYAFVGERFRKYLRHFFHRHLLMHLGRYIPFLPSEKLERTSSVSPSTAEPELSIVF
Type: cell-based
Summary of the method: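 Eotaxin (10 nM final) triggered calcium flux, monitored 60 s with Fluo-3AM, in butyrate-pretreated (5 mM, 20–24 h) CCR3-transfected K562 cells. Compounds preincubated 10 min; percent inhibition per concentration yielded IC50.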

SMILES	IC50 [nM]
O=[N+]([O-])c1ccc(Oc2cccc(F)c2)c(S(=O)(=O)N2CCNCC2)c1 [Example 1-25]	< 1000
Cc1cc(Oc2ccc([N+](=O)[O-])cc2S(=O)(=O)N2CCNCC2)cc(C(C)C)c1.Cl [Example 1-8]	< 1000
N#Cc1ccccc1Oc1ccc([N+](=O)[O-])cc1S(=O)(=O)N1CCNCC1 [Example 1-29]	1000 to 10000
O=[N+]([O-])c1ccc(Oc2ccc(F)cc2)c(S(=O)(=O)N2CCNCC2)c1 [Example 1-20]	> 10000
Cc1cc(C)cc(Oc2cc(C)c([N+](=O)[O-])cc2S(=O)(=O)N2CCNCC2)c1.Cl [Example 1-44]	1000 to 10000
Cc1cc(C)cc(Oc2ccc(S(C)(=O)=O)cc2S(=O)(=O)N2CCNCC2)c1.Cl [Example 1-35]	< 1000
Cl.O=[N+]([O-])c1ccc(Oc2cc(F)cc(F)c2)c(S(=O)(=O)N2CCNCC2)c1 [Example 1-4]	< 1000
CCCCc1ccccc1Oc1ccc([N+](=O)[O-])cc1S(=O)(=O)N1CCNCC1.Cl [Example 1-40]	< 1000
Cc1cc(C)cc(Oc2ccc(C(=O)N3CCNCC3)cc2S(=O)(=O)N2CCNCC2)c1.Cl.Cl [Example 1-42]	> 10000
O=[N+]([O-])c1ccc(Oc2ccccc2)c(S(=O)(=O)N2CCNCC2)c1 [Example 1-18]	1000 to 10000
CN(C)c1cccc(Oc2ccc([N+](=O)[O-])cc2S(=O)(=O)N2CCNCC2)c1.Cl [Example 1-32]	1000 to 10000
CC(C)(C)c1cccc(Oc2ccc([N+](=O)[O-])cc2S(=O)(=O)N2CCNCC2)c1.Cl [Example 1-36]	< 1000
Cl.O=[N+]([O-])c1ccc(Oc2cccc(C(F)(F)F)c2)c(S(=O)(=O)N2CCNCC2)c1 [Example 1-34]	< 1000
Cl.O=[N+]([O-])c1ccc(Oc2cccc(Br)c2)c(S(=O)(=O)N2CCNCC2)c1 [Example 1-39]	< 1000
CC(C)c1cccc(Oc2ccc([N+](=O)[O-])cc2S(=O)(=O)N2CCNCC2)c1.Cl [Example 1-9]	< 1000
CC(C)(C)c1cc(Oc2ccc([N+](=O)[O-])cc2S(=O)(=O)N2CCNCC2)cc(C(C)(C)C)c1.Cl [Example 1-7]	> 10000
Cl.O=[N+]([O-])c1ccc(Oc2cccc3ccccc23)c(S(=O)(=O)N2CCNCC2)c1 [Example 1-11]	< 1000
Cc1cc(Oc2cc(Cl)cc(Cl)c2)c(S(=O)(=O)N2CCNCC2)cc1[N+](=O)[O-].Cl [Example 1-45]	< 1000
Cl.Cl.Cl.Nc1ccc(Oc2ccc([N+](=O)[O-])cc2S(=O)(=O)N2CCNCC2)cc1 [Example 1-13]	> 10000
Cc1cc(C)cc(Oc2ccc(C(F)(F)F)cc2S(=O)(=O)N2CCNCC2)c1.Cl [Example 1-43]	< 1000
Cc1cc(C)cc(Oc2ccccc2S(=O)(=O)N2CCNCC2)c1.Cl [Example 1-41]	1000 to 10000
Cl.O=[N+]([O-])c1ccc(Oc2cc(C(F)(F)F)cc(C(F)(F)F)c2)c(S(=O)(=O)N2CCNCC2)c1 [Example 1-6]	< 1000
COc1cc(C)cc(Oc2ccc([N+](=O)[O-])cc2S(=O)(=O)N2CCNCC2)c1.Cl [Example 1-37]	< 1000
O=[N+]([O-])c1ccc(Oc2ccc(Cl)cc2)c(S(=O)(=O)N2CCNCC2)c1 [Example 1-22]	> 10000
Cl.N#Cc1cccc(Oc2ccc([N+](=O)[O-])cc2S(=O)(=O)N2CCNCC2)c1 [Example 1-10]	1000 to 10000
Cc1cc(C)cc(Oc2ccc([N+](=O)[O-])cc2S(=O)(=O)N2CCNCC2)c1 [Example 1-2, 1-{[2-(3,5-dimethylphenoxy)-5-nitrophenyl]sulfonyl}piperazine hydrochloride]	< 1000

More lines, now with the values ahead:

IC50 [nM]	SMILES
< 1000	Cc1cc(C)cc(Oc2ccc(C#N)cc2S(=O)(=O)N2CCNCC2)c1 [Example 9-1, 4-(3,5-dimethylphenoxy)-3-(1-piperazinylsulfonyl)benzonitrile hydrochloride]
> 10000	Cc1cc(C)cc(Oc2ccc(N)cc2S(=O)(=O)N2CCN(C(=O)OC(C)(C)C)CC2)c1 [Example 5-1, tert-butyl 4-{[5-amino-2-(3,5-dimethyl-phenoxy)phenyl]sulfonyl}-1-piperazinecarboxylate]
< 1000	Cl.O=[N+]([O-])c1ccc(Oc2c(F)c(F)cc(F)c2F)c(S(=O)(=O)N2CCNCC2)c1 [Example 1-74]
1000 to 10000	Cc1ccc(C(C)C)c(Oc2ccc([N+](=O)[O-])cc2S(=O)(=O)N2CCNCC2)c1.Cl [Example 1-66]
< 1000	Cc1cccc(Oc2ccc([N+](=O)[O-])cc2S(=O)(=O)N2CCNCC2)c1C.Cl [Example 1-62]
< 1000	Cl.O=[N+]([O-])c1ccc(Oc2cc(Cl)cc(Cl)c2F)c(S(=O)(=O)N2CCNCC2)c1 [Example 1-77]
< 1000	Cl.O=S(=O)(c1cc(Cl)ccc1Oc1cc(Cl)cc(Cl)c1)N1CCNCC1 [Example 1-56]
> 10000	Cc1cc(C)cc(Oc2cc3cc[nH]c3cc2S(=O)(=O)N2CCNCC2)c1 [Example 11-1, 5-(3,5-dimethylphenoxy)-6-(1-piperazinylsulfonyl)-1H-indole trifluoroacetate]
> 10000	Cc1cc(C)cc(Oc2ccc(NC(=O)Cc3ccccc3)cc2S(=O)(=O)N2CCNCC2)c1 [Example 7-1, N-[4-(3,5-dimethylphenoxy)-3-(1-piperazinylsulfonyl)phenyl]-2-phenylacetamide]
< 1000	Cc1cc(C)cc(Oc2ccc(Br)cc2S(=O)(=O)N2CCNCC2)c1 [Example 8-1, 1-{[5-bromo-2-(3,5-dimethylphenoxy)phenyl]sulfonyl}piperazine hydrochloride]
1000 to 10000	Cc1cc(Oc2ccc([N+](=O)[O-])cc2S(=O)(=O)N2CCNCC2)ccc1Cl.Cl [Example 1-60]
1000 to 10000	COc1ccc(Oc2cc(C)cc(C)c2)c(S(=O)(=O)N2CCNCC2)c1 [Example 6-2, hydrochloride]
1000 to 10000	CN(C)C(=O)c1ccc(Oc2cc(Cl)cc(Cl)c2)c(S(=O)(=O)N2CCNCC2)c1 [Example 10-1, 4-(3,5-dichlorophenoxy)-N,N-dimethyl-3-(1-piperazinylsulfonyl)benzamide hydrochloride]
> 10000	Cc1cc(Oc2ccc([N+](=O)[O-])cc2S(=O)(=O)N2CCNCC2)c(C(C)C)cc1Cl [Example 1-81]
< 1000	Cc1cc(C)cc(Oc2ccncc2S(=O)(=O)N2CCNCC2)c1 [Example 25-1, 1-{[4-(3,5-dimethylphenoxy)-3-pyridinyl]sulfonyl}piperazine hydrochloride]
< 1000	Cc1ccc(C)c(Oc2ccc([N+](=O)[O-])cc2S(=O)(=O)N2CCNCC2)c1.Cl [Example 1-64]
< 1000	Cc1cc(C)cc(Oc2ccc([N+](=O)[O-])cc2S(=O)(=O)N2CCN(CCOCCO)CC2)c1 [Example 1-89]

IC50 [nM]	SMILES
< 1000	Cl.N[C@H]1CCN(S(=O)(=O)c2cc([N+](=O)[O-])ccc2Oc2cc(Cl)cc(Cl)c2)C1 [Example 1-100]
1000 to 10000	Cc1ccc(C)c(Oc2ccc([N+](=O)[O-])cc2S(=O)(=O)N2CCNCC2)c1C.Cl [Example 1-61]
< 1000	O=[N+]([O-])c1ccc(Oc2cc(Cl)ccc2Cl)c(S(=O)(=O)N2CCNCC2)c1 [Example 1-84]
< 1000	Cc1cc(C)cc(Oc2ccc([N+](=O)[O-])cc2S(=O)(=O)N2CCN(CCO)CC2)c1 [Example 1-88]
> 10000	Cc1cc(C)cc(Oc2ccc(O)cc2S(=O)(=O)N2CCNCC2)c1 [Example 6-1, 4-(3,5-dimethylphenoxy)-3-(1-piperazinylsulfonyl)phenol hydrochloride]
< 1000	Cl.O=S(=O)(c1cc(Br)ccc1Oc1cc(Cl)cc(Cl)c1)N1CCNCC1 [Example 1-57]
< 1000	Cc1cc(C)cc(Sc2ccc([N+](=O)[O-])cc2S(=O)(=O)N2CCNCC2)c1 [Example 2-1, 1-({2-[(3,5-dimethylphenyl)-sulfanyl]-5-nitrophenyl}sulfonyl)piperazine hydrochloride]
< 1000	Cl.O=[N+]([O-])c1ccc(Oc2cc(Cl)cc(Cl)c2Cl)c(S(=O)(=O)N2CCNCC2)c1 [Example 1-86]
< 1000	CC1CN(S(=O)(=O)c2cc([N+](=O)[O-])ccc2Oc2cc(Cl)cc(Cl)c2)CC(C)N1 (stereo not drawn) [Example 1-93]
< 1000	Cc1cc(C)cc(Oc2ccc([N+](=O)[O-])cc2S(=O)(=O)N2CC(C)NC(C)C2)c1 (stereo not drawn) [Example 1-92]
< 1000	CN(CCN1CCCCC1)S(=O)(=O)c1cc([N+](=O)[O-])ccc1Sc1cc(Cl)cc(Cl)c1 [Example 26-1, 2-[(3,5-dichlorophenyl)sulfanyl]-N-methyl-5-nitro-N-[2-(1-piperidinyl)ethyl]benzenesulfonamide]
> 10000	COc1cc(Oc2cc(C)cc(C)c2)c(S(=O)(=O)N2CCNCC2)cc1[N+](=O)[O-].Cl [Example 1-47]
< 1000	Cc1cc(C)cc(Oc2ccc([N+](=O)[O-])cc2S(=O)(=O)N2CCCNCC2)c1 [Example 1-90]
< 1000	Cc1cc(C)cc(Oc2ccc(Cl)cc2S(=O)(=O)N2CCNCC2)c1 [Example 5-2, 1-{[5-chloro-2-(3,5-dimethylphenoxy)phenyl]sulfonyl}piperazine hydrochloride]
< 1000	Cl.O=S(=O)(c1cc(F)ccc1Oc1cc(Cl)cc(Cl)c1)N1CCNCC1 [Example 1-51]
< 1000	Cc1cc(Oc2ccc([N+](=O)[O-])cc2S(=O)(=O)N2CCNCC2)cc(C)c1Cl [Example 1-79]
< 1000	O=[N+]([O-])c1ccc(Oc2cc(Cl)cc(Cl)c2)c(S(=O)(=O)N2CC3CCCNC3C2)c1 (stereo not drawn) [Example 1-48]
